# Data: patent publication US20190365754A1, “METHOD OF ELIMINATING STEM CELLS” (Yissum Research Development Company Of The Hebrew …, priority 2014, published 2019)
# What was measured:
# [1] = system: beta catenin, p53, DNA damage response; experiment: Stabilization of beta catenin and p53 and DNA damage response by CKI inhibitors
# [2] = system: leukemia initiating cells (LIC); experiment: BCR-ABL CML blast crisis mouse model, in vivo treatment
# Experimental: To generate the BCR-ABL-inducible CML model, BM cells from MxCre^− Ck1α1^fl/fl or MxCre^+ Ck1 α1^fl/fl were extracted and enriched for cKit expressing cells (EasySep #18757) and incubated overnight in RPMI supplemented with 15% FCS L-Glutamine, Pen/Strep (Beit Haemek) and stem cell factor (SCF), IL-3, IL-6 and TPO (Peprotech). The culture was then infected with p210BCR-ABL-IRES-GFP retrovirus construct containing supernatant medium for 4 hours and returned to medium for additional 24 h. The culture was then injected I.V. into sub-lethally irradiated (500 rad) mice. Upon detectable steady increase of GFP expressing cells in the mice peripheral blood (by FACS) and rise in leukocyte numbers and immature cells (detected by Wright-Giemsa stained blood films) the mice were sacrificed and their bone marrow was transferred to sub-lethally irradiated WT hosts.
# Each such transfer was termed disease generation. By the fourth transfer, the hosts were no longer sub-lethally irradiated prior to disease transfer and the time between generations was shorter (usually 10 days). Blast crisis development was easily detectable by the highly abnormal number of blast cells (more than 30% of WBC in PB) and the shortening time between transfers. The experimental procedure is illustrated in FIG. 3. Experiments were performed on late generation diseases in which blasts were easily detectable, no irradiation of hosts was necessary and the generation time was short (up to 14 days). Mice were monitored daily for cachexia, lethargy, and ruff coats, paralysis and moribund mice were sacrificed.
# (§1) The PF670462 was dissolved in 20% 2-hydroxypropyl β-cyclodextrin (vehicle) and administered by daily I.P. of 60 mg/Kg starting 7 hour after disease transfer. The control mice were treated with the vehicle only.
# WT BM cells = experiment: 7AAD-/Annexin+ apoptosis assay, WT BM cells; type: cell-based, mouse; settings: FIG. 5D
# Experimental: (§2) Freshly isolated bone marrow from CML carrying mice was mixed with normal mice bone marrow in a 1:1 ratio and grown in RPMI supplemented with 15% FCS L-Glutamine, Pen/Strep, Hepes, Sodium Pyruvate, non-essential amino acids (Beit Haemek). PF670462 inhibitor was dissolved in DMSO and added to the tissue culture medium at the indicated concentrations and 0.1% DMSO. As for control, the cells were treated with vehicle only. After 36-48 h, cells were harvested and counted manually using a camera and standard inverted light microscope. Dead cells were excluded using Trypan Blue (sigma). The number of normal and BCR-ABL expressing cells was later extrapolated according to FACS analysis of % GFP^+/7AAD^− expressing cells. AnnexinV-PE (MBL), 7AAD (Tonbo) staining was evaluated by FACS according to manufacturer's recommendation.
# Wnt and p53 pathway = experiment: Quantitative RT-PCR of p53 and Wnt targets in inhibitor-treated bone marrow cells; type: cell-based, mouse; settings: bone marrow cells treated in vitro; FIG. 5B
# Experimental: as §2
# Total RNA from cells was extracted using DirectZol RNA miniprep (Zymed). cDNA was generated using a poly(dT) oligonucleotides (IDT) and MMLV—Reverse Transcriptase (Invitrogen) and amplified on a 7900HT Real Time PCR System (Applied Biosystems) using Platinum® SYBR® Green (Invitrogen) according to the manufacturer's instructions. At least triplicate reactions were performed for each gene. Melting curve analysis was performed after each run to control for the nonspecific PCR products and primer dimers. […]
# leukemic cells = experiment: 7AAD-/Annexin+ apoptosis assay, leukemic cells; type: cell-based, mouse; settings: FIG. 5D
# Experimental: as §2
# β-catenin, p53, c-Myc = experiment: Western blot of bone marrow from inhibitor-treated CML carrying mice; type: in vivo, mouse; settings: daily i.p. 60 mg/Kg; FIG. 6B
# Experimental: as §1
# Whole cell lysate were extracted in the presence of protease and phosphatase inhibitors from the bone marrow of CML carrying mice treated with either vehicle or PF670462.
# Protein extracts, separated by […] and transferred onto nitrocellulose membranes, were probed with antibodies against beta-catenin, c-Myc, p53 and HSP90. Proteins of interest were detected with HRP-conjugated Donkey/Rabbit anti-mouse IgG antibody (1:5000. GE Healthcare, Uppsala, Sweden) and visualized with the Pierce ECL Western blotting substrate (Thermo Scientific, Rockford, Ill.), according to the provided protocol.
# normal BM cells = experiment: In vitro inhibitor test, normal cell number in 1:1 mixed CML/normal bone marrow culture; type: cell-based, mouse; settings: increasing concentration of inhibitor
# Experimental: as §2
# [3] = system: BCR-ABL expressing (GFP+) leukemic cells; experiment: In vitro inhibitor test, leukemic cell number in 1:1 mixed CML/normal bone marrow culture; type: cell-based; settings: increasing concentration of inhibitor
# Experimental: as §2
# [4] = bone marrow of inhibitor-treated mice transplanted to lethally irradiated mice, one month after transplantation
compound,measurement,setting,value
NCCNS(=O)(=O)c1ccc(Cl)c2ccncc12 [CKI7],induction of a DNA damage response,[1],nor do they induce a DNA damage response
same,stabilization of beta catenin and p53,[1],none of these agents stabilize beta catenin and p53
NC(=O)c1ccc(-c2nc(-c3ccc4c(c3)OCCO4)c(-c3ccccn3)[nH]2)cc1 [D4476],induction of a DNA damage response,[1],nor do they induce a DNA damage response
same,stabilization of beta catenin and p53,[1],none of these agents stabilize beta catenin and p53
COc1cc(OC)c(C=C2C(O)=Nc3ccccc32)c(OC)c1 [IC261],induction of a DNA damage response,[1],nor do they induce a DNA damage response
same,stabilization of beta catenin and p53,[1],none of these agents stabilize beta catenin and p53
Nc1nccc(-c2c(-c3ccc(F)cc3)ncn2C2CCCCC2)n1 [PF670462],bone marrow reconstitution of secondary recipients (LT-HSC integrity),[2]; [4],fully reconstitute
same,leukemia GFP+ cells in peripheral blood of secondary recipients,[2]; [4],no evidence of leukemia GFP+ cells
same,GFP+ leukemic cells in peripheral blood,"[2]; daily i.p. 60 mg/Kg starting 7 hour after disease transfer, FIG. 6C",almost undetectable
same,bone marrow / vertebrate histology,"[2]; daily i.p. 60 mg/Kg, FIG. 6D",normal bone marrow appearance with intact vertebrates
same,blasts in peripheral blood,"[2]; daily i.p. 60 mg/Kg, FIG. 6E",no blast were detected
same,survival of leukemic mice,"[2]; daily i.p. 60 mg/Kg, vehicle group died within 12 days, FIG. 6F",remained alive
same,apoptotic cell rate (7AAD-/Annexin+),WT BM cells,not significantly effected
same,expression of Wnt and p53 targets (RT-PCR),Wnt and p53 pathway,upregulation of Wnt and p53 in a dose dependent manner
same,apoptotic cell rate (7AAD-/Annexin+),leukemic cells,increase in apoptotic cell rate under the inhibitor treatment in a dosage dependent manner
same,"β-catenin, p53 and c-Myc protein in bone marrow (Western blot)","β-catenin, p53, c-Myc",stabilization of β-catenin and p53 and induction of the Wnt target gene c-Myc
same,normal BM cell number,normal BM cells,only slightly reduced
same,decline in leukemic cell number,[3],much more prominent
